Measurements taken from US10219516B2, “Molecules having pesticidal utility, and intermediates, compositions, and processes, related thereto” (priority 2015, dated 2019).

Columns and labels:
Format in all cases: in vivo
[1] = tested on: Beet Armyworm (Spodoptera exigua, LAPHEG); assay: Bioassay on Beet Armyworm (BAW), 128-well diet tray assay; conditions: Beet Armyworm, 128-well diet tray assay, read-out: BAW rating
Summary of the method: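 Diet in each of eight wells received 50 μg/cm^2 of test molecule (90:10 acetone-water, dried), then one to five second-instar larvae were added. Mortality (%) was scored after five to seven days at 25° C. under 14:10 light-dark and averaged across the wells.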

[2] = tested on: Yellow Fever Mosquito (Aedes aegypti, AEDSAE); assay: Bioassay on Yellow Fever Mosquito (YFM), 96-well plate larval assay; conditions: Yellow Fever Mosquito, 96-well plate larval assay
Summary of the method: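 Each well was scored for mortality after 3 days at room temperature under a non-evaporative lid. Test molecules came from DMSO masters (4000 ppm stock) diluted with water/acetone 90:10 and dispensed into six replicate plates, which were then infested with roughly 1-day-old larvae in liver-powder water.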

[3] = tested on: Cabbage Looper (Trichoplusia ni, TRIPNI); assay: Bioassay on Cabbage Looper (CL), 128-well diet tray assay; conditions: Trichoplusia ni; Cabbage Looper, 128-well diet tray assay; read-out: CL rating
Summary of the method: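 Using eight wells per molecule, artificial diet was dosed at 50 μg/cm^2 with compound in 90:10 acetone-water and dried before one to five second-instar larvae were added per well. Covered vented trays were kept at 25° C. with 14:10 light-dark for five to seven days, then per-well percent mortality was recorded and averaged.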

| SMILES | pest or weed control at 50 µg/cm2 [1] [%] | YFM rating [2] | pest or weed control at 50 µg/cm2 [3] [%] |
| --- | --- | --- | --- |
| Cc1cc(/N=C/c2ccc(Cl)cc2)ccc1NC(=O)c1cc(NC(=O)C2C(c3cc(Cl)cc(Cl)c3)C2(Cl)Cl)ccc1Cl (stereo not drawn) [F510] | 50 to 100 | A (80-100) | 50 to 100 |
| O=C(Nc1ncc(F)c(NCc2ccccc2)c1F)c1cc(NC(=O)[C@H]2[C@H](c3cc(Cl)cc(Cl)c3)C2(Cl)Cl)ccc1Cl [F524, N-(4-(Benzylamino)-3,5-difluoropyridin-2-yl)-2-chloro-5-((1R,3R)-2,2-dichloro-3-(3,5-dichlorophenyl)cyclopropane-1-carboxamido)benzamide] | 50 to 100 | A (80-100) | 50 to 100 |
| O=C(Nc1cncc(NO)c1)c1cc(NC(=O)[C@H]2[C@H](c3cc(Cl)cc(Cl)c3)C2(Cl)Cl)ccc1Cl [F525, 2-Chloro-5-((1R,3R)-2,2-dichloro-3-(3,5-dichlorophenyl)cyclopropane-1-carboxamido)-N-(5-(hydroxyamino)pyridin-3-yl)benzamide] | 50 to 100 | A (80-100) | 50 to 100 |
| O=C(Nc1cncc(NO)c1)c1cc(NC(=O)[C@H]2[C@H](c3ccc(Cl)c(Cl)c3)C2(Cl)Cl)ccc1Cl [F526, 2-Chloro-5-((1R,3R)-2,2-dichloro-3-(3,4-dichlorophenyl)cyclopropane-1-carboxamido)-N-(5-(hydroxyamino)pyridin-3-yl)benzamide] | 50 to 100 | A (80-100) | 50 to 100 |
| O=C(Nc1ccc(F)cc1F)c1cc(NC(=O)[C@@H]2[C@@H](c3ccc(F)c(Cl)c3)C2(Cl)Cl)ccc1Cl [F534, 2-Chloro-5-((1S,3S)-2,2-dichloro-3-(3-chloro-4-fluorophenyl)cyclopropane-1-carboxamido)-N-(2,4-difluorophenyl)benzamide] | 50 to 100 | A (80-100) | 50 to 100 |
| N#Cc1cc(F)ccc1NC(=O)c1cc(NC(=O)[C@H]2[C@H](c3cc(Cl)cc(Cl)c3)C2(Cl)Cl)ccc1Cl [F535, 2-Chloro-N-(2-cyano-4-fluorophenyl)-5-((1R,3R)-2,2-dichloro-3-(3,5-dichlorophenyl)cyclopropane-1-carboxamido)benzamide] | 50 to 100 | A (80-100) | 50 to 100 |
| N#Cc1cc(F)ccc1NC(=O)c1cc(NC(=O)[C@@H]2[C@@H](c3cc(Cl)cc(Cl)c3)C2(Cl)Cl)ccc1Cl [F536, 2-Chloro-N-(2-cyano-4-fluorophenyl)-5-((1S,3S)-2,2-dichloro-3-(3,5-dichlorophenyl)cyclopropane-1-carboxamido)benzamide] | 50 to 100 | A (80-100) | 50 to 100 |
| COc1c(F)cc(C2C(C(=O)Nc3ccc(Cl)c(C(=O)Nc4ccc(F)cc4F)c3)C2(Cl)Cl)cc1F (stereo not drawn) [F537, 2-Chloro-5-trans-(2,2-dichloro-3-(3,5-difluoro-4-methoxyphenyl)cyclopropane-1-carboxamido)-N-(2,4-difluorophenyl)benzamide] | 50 to 100 | A (80-100) | 50 to 100 |
| O=C(Nc1ccc(F)cc1[N+](=O)[O-])c1cc(NC(=O)[C@H]2[C@H](c3cc(Cl)cc(Cl)c3)C2(Cl)Cl)ccc1Cl [F554, 2-Chloro-5-((1R,3R)-2,2-dichloro-3-(3,5-dichlorophenyl)cyclopropane-1-carboxamido)-N-(4-fluoro-2-nitrophenyl)benzamide] | 50 to 100 | A (80-100) | 50 to 100 |
| O=C(Nc1ccc(F)cc1[N+](=O)[O-])c1cc(NC(=O)[C@H]2[C@H](c3ccc(Cl)c(Cl)c3)C2(Cl)Cl)ccc1Cl [F555, 2-Chloro-5-((1R,3R)-2,2-dichloro-3-(3,4-dichlorophenyl)cyclopropane-1-carboxamido)-N-(4-fluoro-2-nitrophenyl)benzamide] | 50 to 100 | A (80-100) | 50 to 100 |
| O=C(Nc1ccc(F)cc1[N+](=O)[O-])c1cc(NC(=O)[C@H]2[C@H](c3cc(Cl)c(Cl)c(Cl)c3)C2(Cl)Cl)ccc1Cl [F556, 2-Chloro-5-((1R,3R)-2,2-dichloro-3-(3,4,5-trichlorophenyl)cyclopropane-1-carboxamido)-N-(4-fluoro-2-nitrophenyl)benzamide] | 50 to 100 | A (80-100) | 50 to 100 |
| O=C(Nc1ccc(F)cc1[N+](=O)[O-])c1cc(NC(=O)[C@H]2[C@H](c3ccc(F)c(Cl)c3)C2(Cl)Cl)ccc1Cl [F557, 2-Chloro-5-((1R,3R)-2,2-dichloro-3-(3-chloro-4-fluorophenyl)cyclopropane-1-carboxamido)-N-(4-fluoro-2-nitrophenyl)benzamide] | 50 to 100 | A (80-100) | 50 to 100 |
| O=C(NC1CCc2ncccc2C1)c1cc(NC(=O)C2C(c3cc(Cl)cc(Cl)c3)C2(Cl)Cl)ccc1Cl (stereo not drawn) [F567, 2-Chloro-5-trans-(2,2-dichloro-3-(3,5-dichlorophenyl)cyclopropane-1-carboxamido)-N-(5,6,7,8-tetrahydroquinolin-6-yl)benzamide] | 50 to 100 | A (80-100) | 50 to 100 |
| Nc1cc(F)c(NC(=O)c2cc(NC(=O)[C@H]3[C@H](c4cc(Cl)cc(Cl)c4)C3(Cl)Cl)ccc2Cl)cc1F [F568, trans-N-(4-Amino-2,5-difluorophenyl)-2-chloro-5-((1R,3R)-2,2-dichloro-3-(3,5-dichlorophenyl)cyclopropane-1-carboxamido)benzamide] | 50 to 100 | A (80-100) | 50 to 100 |
| Nc1cc(F)c(NC(=O)c2cc(NC(=O)[C@H]3[C@H](c4ccc(Cl)c(Cl)c4)C3(Cl)Cl)ccc2Cl)cc1F [F569, trans-N-(4-Amino-2,5-difluorophenyl)-2-chloro-5-((1R,3R)-2,2-dichloro-3-(3,4-dichlorophenyl)cyclopropane-1-carboxamido)benzamide] | 50 to 100 | A (80-100) | 50 to 100 |
| Nc1cc(F)c(NC(=O)c2cc(NC(=O)[C@H]3[C@H](c4cc(Cl)c(Cl)c(Cl)c4)C3(Cl)Cl)ccc2Cl)cc1F [F570, trans-N-(4-Amino-2,5-difluorophenyl)-2-chloro-5-((1R,3R)-2,2-dichloro-3-(3,4,5-trichlorophenyl)cyclopropane-1-carboxamido)benzamide] | 50 to 100 | A (80-100) | 50 to 100 |
| Nc1cc(F)c(NC(=O)c2cc(NC(=O)[C@H]3[C@H](c4ccc(F)c(Cl)c4)C3(Cl)Cl)ccc2Cl)cc1F [F571, trans-N-(4-Amino-2,5-difluorophenyl)-2-chloro-5-((1R,3R)-2,2-dichloro-3-(3-chloro-4-fluorophenyl)cyclopropane-1-carboxamido)benzamide] | 50 to 100 | A (80-100) | 50 to 100 |
| O=C(Nc1ccc(F)cc1F)c1cc(NC(=O)[C@H]2[C@H](c3ccc(Cl)c(Br)c3)C2(Cl)Cl)ccc1Cl [F572, 5-((1R,3R)-3-(3-Bromo-4-chlorophenyl)-2,2-dichlorocyclopropane-1-carboxamido)-2-chloro-N-(2,4-difluorophenyl)benzamide] | 50 to 100 | A (80-100) | 50 to 100 |
| O=C(Nc1ccc(F)cc1F)c1cc(NC(=O)[C@@H]2[C@@H](c3ccc(Cl)c(Br)c3)C2(Cl)Cl)ccc1Cl [F573, 5-((1S,3S)-3-(3-Bromo-4-chlorophenyl)-2,2-dichlorocyclopropane-1-carboxamido)-2-chloro-N-(2,4-difluorophenyl)benzamide] | 50 to 100 | A (80-100) | 50 to 100 |
| Nc1cc(F)ccc1NC(=O)c1cc(NC(=O)[C@H]2[C@H](c3cc(Cl)cc(Cl)c3)C2(Cl)Cl)ccc1Cl [F575, N-(2-Amino-4-fluorophenyl)-2-chloro-5-((1R,3R)-2,2-dichloro-3-(3,5-dichlorophenyl)cyclopropane-1-carboxamido)benzamide] | 50 to 100 | A (80-100) | 50 to 100 |
| Nc1cc(F)ccc1NC(=O)c1cc(NC(=O)[C@H]2[C@H](c3ccc(Cl)c(Cl)c3)C2(Cl)Cl)ccc1Cl [F576, N-(2-Amino-4-fluorophenyl)-2-chloro-5-((1R,3R)-2,2-dichloro-3-(3,4-dichlorophenyl)cyclopropane-1-carboxamido)benzamide] | 50 to 100 | A (80-100) | 50 to 100 |
| Nc1cc(F)ccc1NC(=O)c1cc(NC(=O)[C@H]2[C@H](c3cc(Cl)c(Cl)c(Cl)c3)C2(Cl)Cl)ccc1Cl [F577, N-(2-Amino-4-fluorophenyl)-2-chloro-5-((1R,3R)-2,2-dichloro-3-(3,4,5-trichlorophenyl)cyclopropane-1-carboxamido)benzamide] | 50 to 100 | A (80-100) | 50 to 100 |
| Nc1cc(F)ccc1NC(=O)c1cc(NC(=O)[C@H]2[C@H](c3ccc(F)c(Cl)c3)C2(Cl)Cl)ccc1Cl [F578, N-(2-Amino-4-fluorophenyl)-2-chloro-5-((1R,3R)-2,2-dichloro-3-(3-chloro-4-fluorophenyl)cyclopropane-1-carboxamido)benzamide] | 50 to 100 | A (80-100) | 50 to 100 |
